Experimental data published in patent publication US7705016B2, “Regulation of food intake by modulation of long-chain fatty acyl-CoA levels in the hypothalamus” (Albert Einstein College of Medicine of Yeshiva University, priority 2003, dated 2010).

Key:
CPT1L mRNA = CPT1L mRNA in stably transfected AtT20 cells (northern blot); format: cell-based; settings: AtT20 cells expressing CPT1L-Ribo; normalized to β-actin
Text: Potent anorexic drugs such as fatty acid synthase (FAS) inhibitors increase the levels of malonyl-CoA, which is derived from the carboxylation of acetyl-CoA by the enzyme acetyl-CoA carboxylase (ACC). High levels of malonyl-CoA in turn inhibit CPT1-dependent oxidation of long-chain fatty acyl-CoAs (LC-CoAs). Similarly, the ICV administration of exogenous fatty acids (LCFA) directly increases the cellular levels of LC-CoA. In either case the resulting increase in intracellular LC-CoA concentration leads to inhibition of feeding behavior. […] LEFT: A probe specific for the liver isoform of CPT1 (CPT1L) detected a ˜4.3 Kb band in the liver (L) and in hypothalamus (H), but not in hind limb muscle (M). RIGHT: Hybridization with a muscle-specific CPT1 probe (CPT1M) detected a ˜3 Kb band in […] muscle (M), but not in hypothalamus. Each lane contained 1.5 μg of mRNA. […] About 200 stable clones were selected for neomycin resistance and analyzed by Northern blot. […] Data are expressed as % of control after normalization with β-actin expression. […] Levels of LC-CoAs were measured by HPLC in liver and skeletal muscle tissues of rats infused IV with vehicle (▪) or CPT1 inhibitors (□). […]
Quantitation of CPT1 and neuropeptides mRNA by Northern and real-time PCR. […]

[1] = tested on: NPY, AgRP and POMC mRNA in ARC; assay: Neuropeptide (NPY, AgRP, POMC) mRNA in ARC by real-time PCR; format: in vivo, rat; settings: ICV
Text: In order to begin investigating the mechanisms responsible for the anorectic properties of ARC CPT1 inhibition, we next analyzed the effect of CPT1L-Ribo on the gene expression of key ARC peptides. […] Overall, these anorectic effects support the notion that changes in the neuronal levels of LC-CoAs may directly control food intake via their action on discrete hypothalamic centers. Furthermore, increases in LC-CoAs levels in selective hypothalamic neurons are likely to account for the potent effects of oleic acid and of FAS inhibitors on food intake (Loftus et al., 2000; Obici et al., 2002a; Makimura et al., 2001; Shimokawa et al., 2002).
Total RNA was isolated with Trizol (Invitrogen, Carlsbad, Calif.) from individual hypothalamic nuclei (i.e. Arcuate, PVN etc.). Single strand cDNA synthesis and real-time PCR reactions were performed as previously described (Obici et al., 2002b). CPT1L and CPT1M mRNA specific primers contained the following sequences: CPT1L forward (F) 5′-[…]-3′ (SEQ ID NO:5) and reverse (R) primer, 5′-[…]-3′ (SEQ ID NO:6); CPT1M F 5′-[…]-3′ (SEQ ID NO:7) and R 5′-[…]-3′ (SEQ ID NO:8). Hypothalamic neuropeptides expression was performed by real-time PCR using the following primers: NPY-F 5′-[…]-3′ (SEQ ID NO:9), R 5′-[…]-3′ (SEQ ID NO:10), POMC-F 5′-CCAGGCAACGGAGATGAAC-3′ (SEQ ID NO:11), R 5′-TCACTGGCCCTTCTTGTGC-3′ (SEQ ID NO:12), AgRP-F 5′-[…]-3′ (SEQ ID NO:13), R 5′-[…]-3′ (SEQ ID NO:14), and β-actin F 5′-[…]-3′ (SEQ ID NO:15), R 5′-[…]-3′ (SEQ ID NO:16). Transcript levels are expressed as copy number of each gene normalized to copy number for β-actin. Copy number for each transcript was measured against a standard curve, which was obtained by PCR runs of each primer set with serial dilutions of a plasmid containing the target template sequences.

CPT1L-Ribo: plasmid (pTarget, CMV promoter) expressing a hammerhead ribozyme that specifically cleaves rat CPT1L mRNA, complexed to PEI for ICV injection (DNA CUGUACCAAAGAGCUGUAGAGUCCGUGAGGACGAAACGCCGCUCACAAUG)
less CPT1L mRNA than control cells transfected with vector alone (CPT1L mRNA): ~50% | expression of POMC in the ARC [1]: not significantly altered | AgRP mRNA in the ARC ([1]; compared with Control-Ribo): marked decrease | NPY mRNA in the ARC ([1]; compared with Control-Ribo): marked decrease
